Experimental data as given in patent publication US6925388B1, “Heterocyclic nonnucleoside inhibitors of reverse transcriptase” (Parker Hughes Institute, priority 1998, dated 2005).
Where two headings read alike, the source gives them in different places.

Columns and labels:
HIV-1 strain HTLVIIIB = assay: p24 enzyme immunoassay of HIV replication in HTLVIIIB-infected peripheral blood mononuclear cells; assay type: cell-based
Method: The HIV-1 strain HTLVIIIB (kindly provided by Dr. Neal T. Wetherall, VIROMED Laboratories, Inc.), was propagated in CCRF-CEM cells, and used in in vitro assays of the anti-HIV-1 activity of the synthesized novel derivatives. Cell-free supernatants of HTLVIIIB-infected CCRF-CEM cells were harvested, dispensed into 1 ml aliquots, and frozen at −70° C.
The incubated cells were then exposed to HIV-1 at a multiplicity of infection (MOI) of 0.1 during a one-hour adsorption period at 37° C. in a humidified 5% CO2 atmosphere. […] Aliquots of culture supernatants were removed from the wells on the 7th day after infection for p24 antigen assays. […] Ag.
The applied p24 enzyme immunoassay (EIA) was the unmodified kinetic assay commercially available from Coulter Corporation/Immunotech, Inc. (Westbrooke, Me.). In the assay, a murine monoclonal antibody against HIV core protein is coated onto microwell strips. Antigen (HIV core protein) present in the test culture supernatant samples binds the antibody and the bound antibody-antigen complex is quantitated. Percent viral inhibition was calculated by comparing the p24 values from the test substance-treated infected cells with p24 values from untreated infected cells (i.e., virus controls).

[1] = biological target: recombinant HIV-1 reverse transcriptase (rRT) (Human immunodeficiency virus type 1 group M subtype B, UniProt P04585); assay: Quan-T-RT cell-free assay of recombinant HIV-1 reverse transcriptase activity; assay type: biochemical
Method: In addition, the activity of the test compounds to inhibit recombinant HIV-1 reverse transcriptase (rRT) activity was determined using the Quan-T-RT assay system (Amersham, Arlington Heights, Ill.), which utilizes the scintillation proximity assay principle. […] Data for both bioassays is reported as IC50 values.

[2] = Microculture Tetrazolium Assay (MTA) of cell viability; assay type: cell-based, human; conditions: human; for CC50 at 7 days: non-infected PBMNC, Table 4
Method: (§1) Ag. […] In brief, non-infected PBMNC were treated with test compounds or controls for 7 days under identical experimental conditions and 2,3-bis(2-methoxy-4-nitro-5-sulfophenyl)-5-[(phenylamino)-carbonyl]-2H-tetrazolium hydroxide ([…]), was added to quantitative cellular proliferation.

non-infected PBMNC = assay: as above; assay type: cell-based, human; conditions: for IC50: Table 7, concentration decreasing cellular proliferation by 50%
Method: as §1

[3] = Human immunodeficiency virus 1, PBMC, HIV-infected human peripheral blood mononuclear cells, read-out: IC50 for inhibition of HIV replication (p24 production)
[4] = Human immunodeficiency virus 1, PBMC, Table 6, read-out: IC50 p24
[5] = Table 5, HIV-infected PBMNC, read-out: IC50 p24
[6] = Table 7, HIV-infected peripheral blood mononuclear cells, read-out: IC50 [p24]
[7] = Human immunodeficiency virus 1, PBMC, read-out: IC50 [p24]
[8] = Table 6, recombinant HIV reverse transcriptase assay, read-out: IC50 rRT
[9] = Table 4, DABO compounds, purified recombinant HIV RT, read-out: IC50 [rRT]

SMILES: COc1cccc(CCNC(=S)Nc2ccc(Br)cn2)c1 [II-4, N-[2-(3-metboxyphenethyl)]-N′-[2-(5-bromopyridyl)]-thiourea]
- melting point: 155 to 156 °C
- selectivity index (IC50[MTA]/IC50[p24]) (HIV-1 strain HTLVIIIB): > 3×10^4
- IC50 (HIV-1 strain HTLVIIIB; [3]): 0.003 µM
- IC50 (HIV-1 strain HTLVIIIB; [4]): 0.003 µM
- IC50 [1]: 0.4 µM
- times more potent than trovirdine against recombinant HIV RT [1]: approximately 2

SMILES: CCOCn1c(Cc2ccccc2)c(C(C)C)c(=O)[nH]c1=O [MKC-442, reference compound]
- CC50 at 7 days [2]: > 100 µM

SMILES: S=C(NCCc1ccccn1)Nc1ccccn1 [Compound I-1, N-[2-(2-pyridylethyl)]-N′-[2-(pyridyl)]-thiourea]
- IC50 (HIV-1 strain HTLVIIIB; [5]): 0.23 µM

SMILES: S=C(NCCN1CCNCC1)Nc1ccc(Br)cn1 [III-2, N-[2-(1-piperizinylethyl)]-N′-[2-(5-bromopyridyl)]-thiourea]
- IC50 (HIV-1 strain HTLVIIIB; [6]): 0.002 µM
- IC50 (non-infected PBMNC): > 100 µM

SMILES: Fc1ccccc1CCNC(=S)Nc1ccc(Br)cn1 [II-2, N-[2-(2-fluorophenethyl)]-N′-[2-(5-bromopyridyl)]-thiourea]
- melting point: 156 to 157 °C
- IC50 (HIV-1 strain HTLVIIIB; [3]): < 0.001 µM
- IC50 (HIV-1 strain HTLVIIIB; [4]): < 0.001 µM
- IC50 [1]: 0.6 µM

SMILES: CSCSc1nc(Cc2ccccc2)c(C(C)C)c(=O)[nH]1 [Compound 3c, 5-isopropyl-2-[(methylthiomethyl)thio]-benzyl-pyrimidin-4-1H-one]
- selectivity index (IC50[MTA]/IC50[p24]) (HIV-1 strain HTLVIIIB): > 100,000
- fold more active than AZT and MKC-442 (HIV-1 strain HTLVIIIB; HIV replication): more than 4 fold
- IC50 (HIV-1 strain HTLVIIIB; [7]): < 0.001 µM
- IC50 (HIV-1 strain HTLVIIIB; Human immunodeficiency virus 1, PBMC, read-out: IC50 for inhibition of HIV replication (p24 production)): < 0.001 µM
- inhibition of cellular proliferation as measured by MTA (non-infected PBMNC; no detectable cytotoxicity): > 100 µM
- CC50 at 7 days [2]: > 100 µM

SMILES: S=C(NCCc1ccc(Cl)cc1)Nc1ccc(Br)cn1 [II-9, N-[2-(4-chlorophenethyl)]-N′-[2-(5-bromopyridyl)]-thiourea]
- melting point: 180 to 183 °C

SMILES: COc1ccc(OC)c(CCNC(=S)Nc2ccc(Br)cn2)c1 [Compound I-4, N-[2-(2,5-dimethoxyphenylethyl)]-N′-[2-(5-bromopyridyl)]-thiourea]
- melting point: 133 to 138 °C
- IC50 (HIV-1 strain HTLVIIIB; Human immunodeficiency virus 1, PBMC, 3 of 3 independent experiments for I-4, read-out: IC50 anti-HIV activity (p24)): < 0.001 µM
- IC50 (HIV-1 strain HTLVIIIB; Human immunodeficiency virus 1, PBMC, Table 5, HIV-infected PBMNC, read-out: IC50 p24): < 0.001 µM
- times more potent than trovirdine against recombinant HIV RT [1]: 8

SMILES: Fc1ccc(CCNC(=S)Nc2ccc(Br)cn2)cc1 [II-8, N-[2-(4-fluorophenethyl)]-N′-[2-(5-bromopyridyl)]-thiourea]
- melting point: 177 to 178 °C
- fold less active than meta and ortho F compounds (IC50[rRT]) [1]: 10 fold
- IC50 [1, 8]: 6.4 µM

SMILES: COc1ccccc1CCNC(=S)Nc1ccc(Br)cn1 [II-1, N-[2-(2-methoxyphenethyl)]-N′-[2-(5-bromopyridyl)]-thiourea]
- melting point: 143 to 145 °C
- IC50 (HIV-1 strain HTLVIIIB; [4]): 0.01 µM
- IC50 [1]: 1 µM

SMILES: CSCSc1nc(Cc2cc(C)cc(C)c2)c(C(C)C)c(=O)[nH]1 [Compound 3d, 5-isopropyl-2-[(methylthiomethyl)thio]-6-(3,5-dimethylbenzyl)-pyrimidin-4-1H-one]
- IC50 [1, 9]: 4.8 µM

SMILES: COc1ccc(CCNC(=S)Nc2ccc(Br)cn2)cc1 [II-7, N-[2-(4-methoxyphenethyl)]-N′-[2-(5-bromopyridyl)]-thiourea]
- melting point: 178 to 179 °C
- IC50 (HIV-1 strain HTLVIIIB; [3]): 0.015 µM
- IC50 (HIV-1 strain HTLVIIIB; [4]): 0.015 µM

SMILES: S=C(NCCN1CCOCC1)Nc1ccc(Br)cn1 [III-3, N-[2-(1-morpholinylethyl)]-N′-[2-(5-bromopyridyl)]-thiourea]
- IC50 (HIV-1 strain HTLVIIIB; [6]): < 0.001 µM
- IC50 (non-infected PBMNC): > 100 µM

SMILES: Fc1cccc(CCNC(=S)Nc2ccc(Br)cn2)c1 [II-5, N-[2-(3-fluorophenethyl)]-N′-[2-(5-bromopyridyl)]-thiourea]
- melting point: 171 to 172 °C
- IC50 (HIV-1 strain HTLVIIIB; [3]): < 0.001 µM
- IC50 (HIV-1 strain HTLVIIIB; [4]): < 0.001 µM
- IC50 [1]: 0.7 µM

SMILES: CSCSc1nc(Cc2ccccc2)c(C)c(=O)[nH]1 [Compound 3a, 5-methyl-2-[(methylthiomethyl)thio]-6-benzyl-pyrimidin-4-1H-one]
- IC50 (HIV-1 strain HTLVIIIB; [7]): 4.5 µM
- CC50 at 7 days [2]: > 100 µM
- IC50 [1, 9]: 18.8 µM

SMILES: S=C(NCCc1ccccc1Cl)Nc1ccc(Br)cn1 [II-3, N-[2-(2-chlorophenethyl)]-N′-[2-(5-bromopyridyl)]-thiourea]
- melting point: 137 to 139 °C
- IC50 (HIV-1 strain HTLVIIIB; [3]): < 0.001 µM
- IC50 (HIV-1 strain HTLVIIIB; [4]): < 0.001 µM
- IC50 [1]: 0.7 µM

SMILES: S=C(NCCc1ccccn1)Nc1ccc(Br)cn1 [Trovirdine, reference compound]
- IC50 (HIV-1 strain HTLVIIIB; [7]): 0.007 µM
- IC50 (HIV-1 strain HTLVIIIB; Human immunodeficiency virus 1, PBMC, read-out: IC50 anti-HIV activity (p24)): 0.007 µM
- IC50 (HIV-1 strain HTLVIIIB; Human immunodeficiency virus 1, PBMC, read-out: IC50 p24): 0.007 µM
- IC50 at 7 days ([2]; Table 7, concentration decreasing cellular proliferation by 50%): > 100 µM

SMILES: Cc1cn([C@H]2C[C@H](N=[N+]=[N-])[C@@H](CO)O2)c(=O)[nH]c1=O [AZT, reference compound]
- IC50 (HIV-1 strain HTLVIIIB; 3 of 3 independent experiments for I-4, read-out: IC50 anti-HIV activity (p24)): 0.008 µM
- IC50 (HIV-1 strain HTLVIIIB; Table 4, HTLVIIIB-infected peripheral blood mononuclear cells, read-out: IC50 [p24]): 0.04 µM
- IC50 (HIV-1 strain HTLVIIIB; Table 6, read-out: IC50 p24): 0.004 µM
- IC50 (HIV-1 strain HTLVIIIB; [6]): 0.004 µM
- CC50 (non-infected PBMNC; Table 4): 50 µM
- IC50 (non-infected PBMNC): 50 µM
- IC50 [1, 9]: > 100 µM
- IC50 [1, 8]: > 100 µM

SMILES: CCc1c(Cc2ccccc2)nc(SCSC)[nH]c1=O [Compound 3b, 5-ethyl-2-[(methylthiomethyl)thio]-6-benzyl-pyrimidin-4-1H-one]
- IC50 (HIV-1 strain HTLVIIIB; [7]): 0.8 µM
- CC50 at 7 days [2]: > 100 µM
- IC50 [1, 9]: 9.7 µM

SMILES: S=C(NCCc1cccc(Cl)c1)Nc1ccc(Br)cn1 [II-6, N-[2-(3-chlorophenethyl)]-N′-[2-(5-bromopyridyl)]-thiourea]
- melting point: 163 to 165 °C
- IC50 [1, 8]: 3.1 µM

SMILES: S=C(NCCN1CCCCC1)Nc1ccc(Br)cn1 [Compound I-3, N-[2-(1-piperidinoethyl)]-N′-[2-(5-bromopyridyl)]-thiourea]
- IC50 (HIV-1 strain HTLVIIIB; [5]): < 0.001 µM

SMILES: S=C(NCCN1CCCCC1)Nc1ccc(Br)cn1 [III-1, N-[2-(1-piperidinylethyl)]-N′-[2-(5-bromopyridyl)]-thiourea]
- IC50 (HIV-1 strain HTLVIIIB; [6]): < 0.001 µM
- IC50 (non-infected PBMNC): > 100 µM
